Data on 4 compounds can be found in article PMC10535856, “CD4^+ T Cell Responses to Toxoplasma gondii Are a Double-Edged Sword” (Vaccines, 2023).

Where no end group is shown, it is not given here.

For data set [1], the system named is Toxoplasma gondii tachyzoites and encysted bradyzoites. Particulars: cited from earlier work.
Data set [2] addresses T1, I-A^b (Mus musculus, UniProt P14434+P14483).
T1 sequence (P14434 24-256): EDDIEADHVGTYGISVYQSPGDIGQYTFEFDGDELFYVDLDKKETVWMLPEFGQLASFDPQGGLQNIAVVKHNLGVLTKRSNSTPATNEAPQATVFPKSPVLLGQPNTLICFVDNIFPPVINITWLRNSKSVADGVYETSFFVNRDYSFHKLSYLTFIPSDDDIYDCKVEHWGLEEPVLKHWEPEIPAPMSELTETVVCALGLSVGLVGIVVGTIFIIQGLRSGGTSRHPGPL
T1 sequence (P14483 28-265): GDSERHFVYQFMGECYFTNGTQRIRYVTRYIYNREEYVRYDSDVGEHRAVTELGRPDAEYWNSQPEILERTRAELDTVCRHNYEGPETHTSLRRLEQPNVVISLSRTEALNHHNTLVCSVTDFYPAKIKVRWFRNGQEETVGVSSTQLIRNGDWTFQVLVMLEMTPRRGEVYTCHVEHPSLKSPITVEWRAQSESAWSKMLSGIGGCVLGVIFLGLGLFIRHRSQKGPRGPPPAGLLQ
Further details: method as in PMID 7895164, PMID 32763137. Particulars: cited from earlier work.

Data set [3] concerns CD4^+ T cells. To be noted: in vitro human PBMCs and in vivo mice; cited from earlier work. An excerpt: Vaccines that are composed of polypeptides that elicit epitope-restricted CD4^+ and CD8^+ T cells have the potential to induce an immune response against human toxoplasmic infection in humans. We are building a rational “immunosense” approach that utilizes epitope selection for peptides that can be presented by human major histocompatibility complexes (MHCs) to elicit protective CD8^+ and CD4^+ T cells. We have made considerable efforts to iden ...

In data set [4] the test system is uninfected HLA-A*11:01 transgenic mice. The experiment in a line: Mortality and tolerability after boost immunization. Format: in vivo, mouse.
Data set [5] concerns the target T1, I-A^b. The experiment in a line: Competitive peptide binding to I-A^b. To be noted: competitive binding study, procedure of ref 51; 'bound weakly'.

Turning to `Nc1ccc(S(=O)(=O)Nc2ncccn2)cc1` [sulfadiazine], in data set [1], the “Activity against actively replicating tachyzoites” value was “effective against actively replicating tachyzoites” and the “Elimination of encysted bradyzoites” value was “cannot eliminate encysted bradyzoites”.

Turning to AKFVAAWTLKAAA [PADRE], the “Affinity to I-A^b” value in data set [2] is “relatively high affinity”. In addition, in data set [3], the “Generation of responsive CD4^+ T cells” value is on record as “contributes to the generation of responsive CD4^+ T cells”.

One may read the IC50 as the midpoint of a concentration-inhibition curve. A lower IC50 goes with greater potency in that assay. With AVEIHRPVPGTAPPS [AS15, AVEIHRPVPGTAPPS], in data set [4] (AS15 or GLA-SE alone), the “Harmful response to single components” value is given as “neither AS15 nor GLA-SE alone elicit this harmful response”. The “Overall effect in summary cartoon” value in data set [4] (Figure S1, single components) is reported as “No effect”. In data set [5], the IC50 was 413 nM.

In the case of `CCc1nc(N)nc(N)c1-c1ccc(Cl)cc1` [Pyrimethamine], in data set [1], the “Activity against actively replicating tachyzoites” value was “effective against actively replicating tachyzoites” and the “Elimination of encysted bradyzoites” value is “cannot eliminate encysted bradyzoites”.
